Drawing on ChEMBL document CHEMBL5230096, “A comprehensive insight on the recent development of Cyclic Dependent Kinase inhibitors as anticancer agents” (Eur J Med Chem, 2020), this text covers IC50 and DC50 for 3 compounds.

The subject of one data set is MCF7. The experiment in a line: Cytotoxicity against human MCF7 cells assessed as reduction in cell growth incubated for 72 hrs by Calcein AM assay. To be noted: MCF7, 72 h. It is filed as functional, cell-based.
The subject of a further data set is MDA-MB-468. The experiment in a line: Cytotoxicity against human MDA-MB-468 cells assessed as reduction in cell growth incubated for 72 hrs by Calcein AM assay. To be noted: MDA-MB-468, 72 h. It counts as functional, cell-based.
The next data set has as its system HeLa. The experiment in a line: Cytotoxicity against human HeLa cells assessed as reduction in cell growth incubated for 72 hrs by Calcein AM assay. It is filed as functional, cell-based.
For another data set, the system named is HCT-116. The experiment in a line: Cytotoxicity against human HCT-116 cells assessed as reduction in cell growth incubated for 72 hrs by Calcein AM assay. To be noted: HCT-116, 72 h. It is filed as functional, cell-based.
Another data set concerns HT-29. The experiment in a line: Cytotoxicity against human HT-29 cells assessed as reduction in cell growth incubated for 72 hrs by Calcein AM assay. It is filed as functional, cell-based. To be noted: HT-29, 72 h.
A further data set relates to CCRF-CEM. The experiment in a line: Cytotoxicity against human CEM cells assessed as reduction in cell growth incubated for 72 hrs by Calcein AM assay. It is filed as functional, cell-based.
The subject of the next data set is K562. The experiment in a line: Cytotoxicity against human K562 cells assessed as reduction in cell growth incubated for 72 hrs by Calcein AM assay. It is filed as functional, cell-based. To be noted: K562, 72 h.
A further data set deals with G-361. The experiment in a line: Cytotoxicity against human G-361 cells assessed as reduction in cell growth incubated for 72 hrs by Calcein AM assay. It is filed as functional, cell-based. To be noted: G-361, 72 h.
A further data set deals with RPMI-8226. The experiment in a line: Cytotoxicity against human RPMI-8226 cells assessed as reduction in cell growth incubated for 72 hrs by Calcein AM assay. It counts as functional, cell-based. To be noted: RPMI-8226, 72 h.
The subject of another data set is U-266. The experiment in a line: Cytotoxicity against human U-266 cells assessed as reduction in cell growth incubated for 72 hrs by Calcein AM assay. It counts as functional, cell-based. To be noted: U-266, 72 h.
The next data set relates to HOS. The experiment in a line: Cytotoxicity against human HOS cells assessed as reduction in cell growth incubated for 72 hrs by Calcein AM assay. It is filed as functional, cell-based.
The target of data set [1] is Protein cereblon/Cyclin-dependent kinase 4 (Homo sapiens, UniProt P11802+Q96SW2). The experiment in a line: Protac activity at CRBN/CDK4 in human MDA-MB-231 cells assessed as CDK4 degradation incubated for 18 hrs by Western blot analysis. It is filed as cell-based. A general note: A western blot detects proteins with antibodies after separation by electrophoresis.
In data set [2] the target is Protein cereblon/Cyclin-dependent kinase 6 (Homo sapiens, UniProt Q00534+Q96SW2). The experiment in a line: Protac activity at CRBN/CDK6 in human MDA-MB-231 cells assessed as CDK6 degradation incubated for 18 hrs by Western blot analysis. It is filed as cell-based.
A short description of data set [3]: Cytotoxicity against human L02 cells assessed as inhibition of cell viability incubated for 72 hrs by MTT assay. It is filed as toxicity, cell-based.

Protein cereblon/Cyclin-dependent kinase 4, sequence (P11802 whole entry): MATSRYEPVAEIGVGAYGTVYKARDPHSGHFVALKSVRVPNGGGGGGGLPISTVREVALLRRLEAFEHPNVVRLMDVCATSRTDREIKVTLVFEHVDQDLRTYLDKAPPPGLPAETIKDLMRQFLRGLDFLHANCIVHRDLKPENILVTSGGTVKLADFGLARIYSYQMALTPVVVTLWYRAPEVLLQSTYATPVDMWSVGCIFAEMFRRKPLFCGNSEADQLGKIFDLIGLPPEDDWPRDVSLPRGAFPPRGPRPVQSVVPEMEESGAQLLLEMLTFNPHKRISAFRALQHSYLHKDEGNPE
Protein cereblon/Cyclin-dependent kinase 4, sequence (Q96SW2 whole entry): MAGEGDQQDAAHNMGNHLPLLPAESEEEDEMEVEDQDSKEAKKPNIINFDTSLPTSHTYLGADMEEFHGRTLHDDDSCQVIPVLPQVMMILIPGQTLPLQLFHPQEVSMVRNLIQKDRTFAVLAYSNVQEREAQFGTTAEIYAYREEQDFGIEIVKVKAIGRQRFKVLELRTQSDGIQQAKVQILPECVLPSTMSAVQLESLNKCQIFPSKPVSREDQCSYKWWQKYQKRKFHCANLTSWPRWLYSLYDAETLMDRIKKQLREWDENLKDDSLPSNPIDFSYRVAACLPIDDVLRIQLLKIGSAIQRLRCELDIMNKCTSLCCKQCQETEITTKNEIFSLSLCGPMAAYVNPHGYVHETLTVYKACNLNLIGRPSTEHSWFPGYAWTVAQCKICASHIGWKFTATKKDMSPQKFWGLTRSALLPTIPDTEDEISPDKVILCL
Protein cereblon/Cyclin-dependent kinase 6, sequence (Q00534 whole entry): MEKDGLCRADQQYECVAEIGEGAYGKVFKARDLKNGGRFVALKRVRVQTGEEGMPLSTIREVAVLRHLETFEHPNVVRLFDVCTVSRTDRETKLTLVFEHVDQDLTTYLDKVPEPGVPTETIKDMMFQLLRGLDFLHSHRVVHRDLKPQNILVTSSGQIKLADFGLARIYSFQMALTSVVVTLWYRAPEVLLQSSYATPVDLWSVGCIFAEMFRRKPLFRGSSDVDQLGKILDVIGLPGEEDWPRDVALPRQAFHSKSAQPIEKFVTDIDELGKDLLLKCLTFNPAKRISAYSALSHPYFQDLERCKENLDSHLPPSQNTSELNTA
Protein cereblon/Cyclin-dependent kinase 6, sequence (Q96SW2 whole entry): as the sequence (Q96SW2 whole entry) above

Take `CC[C@H](CO)Nc1nc(NCc2ccccc2N)c2[nH]nc(C(C)C)c2n1`: the concentration for half-maximal inhibition (IC50) in the data set on MCF7, in the data set on MDA-MB-468, with HeLa, in the data set with HCT-116, with HT-29 and in the data set with CCRF-CEM was 5 µM each time. In addition, the IC50 in the data set with K562, in the data set on G-361, in the data set on RPMI-8226, in the data set with U-266 and in the data set with HOS was 5 µM each time.
`CC(=O)c1c(C)c2cnc(Nc3ccc(N4CCN(Cc5cn(CCCCCC(=O)Nc6cccc7c6C(=O)N(C6CCC(=O)NC6=O)C7=O)nn5)CC4)cn3)nc2n(C2CCCC2)c1=O` (centres undefined): the 50% degradation concentration (DC50) in [1] and in data set [2] was 20 nM each time.
For `O=C1CCC(N2C(=O)c3cccc(NC(=O)CCCCCCCn4cc(COc5c(O)cc(O)c6c(=O)cc(-c7ccccc7)oc56)nn4)c3C2=O)C(=O)N1` (centres undefined), the IC50 at 72 hrs in data set [3] is more than 100 µM.

For orientation: IC50 means the concentration needed to halve the response being measured. What is called DC50 is the concentration at which degradation of the target reaches its halfway point.
